Measurements: patent publication EP2322149A1, “Methods and compositions for the treatment of ischemia” (Universidad del Pais Vasco, priority 2009, dated 2011)
“Also recorded” adds a separate entry of the source. Where a name gives a salt, the structure may show the parent alone.

What was measured:
[1] = target: T1, P2X2 (Homo sapiens, UniProt Q9UBL9); details: read-out: IC50 P2X2; cited from earlier work
T1 sequence (Q9UBL9 1-471): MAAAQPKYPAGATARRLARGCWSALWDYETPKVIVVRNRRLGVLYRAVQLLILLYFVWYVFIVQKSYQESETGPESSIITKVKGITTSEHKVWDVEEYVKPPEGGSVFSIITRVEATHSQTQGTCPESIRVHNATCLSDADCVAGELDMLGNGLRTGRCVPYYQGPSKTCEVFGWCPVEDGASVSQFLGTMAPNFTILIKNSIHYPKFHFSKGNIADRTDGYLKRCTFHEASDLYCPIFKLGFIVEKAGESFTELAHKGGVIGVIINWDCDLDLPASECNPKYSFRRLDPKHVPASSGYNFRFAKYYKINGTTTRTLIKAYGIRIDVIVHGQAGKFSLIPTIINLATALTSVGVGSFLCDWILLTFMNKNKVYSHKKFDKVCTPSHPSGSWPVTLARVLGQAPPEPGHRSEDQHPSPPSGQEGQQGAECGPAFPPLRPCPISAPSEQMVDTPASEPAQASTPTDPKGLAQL

[2] = tested on: cultured optic nerve oligodendrocytes; assay: ATP release measurement (luciferin/luciferase) in oligodendrocyte cultures after OGD; assay type: cell-based, Sprague-Dawley rats
Experimental: (§1) Primary cultures of oligodendrocytes derived from optic nerves of 12 day-old Sprague-Dawley rats were obtained as previously described (Matute et al., 1997 Proc Natl Acad Sci U S A 94:8830-8835.).Cells were maintained at 37°C and 5% CO2 in a chemically defined medium (Matute et al., 1997 Proc Natl Acad Sci U S A 94:8830-8835.). After 2-4 days in vitro, cultures were composed of at least 98% 04/Ga1C^+ cells. No microglial cells were detected in these cultures. […] Cell death was determined 24h later using calcein-AM (Invitrogen) as previously described (Matute et al., 1997 Proc Natl Acad Sci U S A 94:8830-8835.). Antagonists were present during in vitro ischaemia and during the next 24h incubation period. […] To assay the levels of reactive oxygen species (ROS), cells were loaded with 40 µM 2',7'- dichlorodihyfluoresceindiacetate (DCFDA; Invitrogen) and 1 µM calcein red-orange (Molecular Probes) immediately after OGD. Calcein was used to quantify the number of cells within the reading field. Fluorescence was measured as above and values were plotted as the percentage of DCFDA/calcein red-orange fluorescence versus control. The changes in mitochondrial membrane potential were monitored with 5,5',6,6'-tetrachloro-1,1',3,3'-tetraethylbenzimidazolcarbocyanine iodide (JC-1; Molecular Probes). Immediately after OGD, cells were loaded with JC-1 (3 µM) at 37°C for 30 min. The changes in the membrane potential were calculated as the red (emission at 590)/green (emission at 520) ratio in each condition and results were normalized to control.
ATP levels were measured using a Luciferin/Luciferase assay kit (Invitrogen) after 1h normoxia or OGD in oligodendrocyte cultures and in isolated optic nerves according to the manufacturer's instructions. The luminescence was measured with a luminometer Synergy-HT (BioTek) with an integration time of 3 sec. Because ATP was measured in the culture medium and in the solution bathing optic nerves, the concentration of ATP at the extracellular surface, near the vicinity of the receptor was underestimated (Joseph et al., 2003. J Biol Chem 278:23331-23342). The limit of ATP detection was 1 nM and luminescence was linear with increasing ATP concentrations to 1000 nM. The total amount of ATP was calculated according to standard curves and ATP release was expressed in percentage vs control.

[3] = tested on: optic nerve oligodendrocytes; assay: Oxygen and glucose deprivation (OGD) cell death in oligodendrocyte cultures (calcein-AM); assay type: cell-based, Sprague-Dawley rats; details: 1h OGD, calcein 24h later; PPADS 100 µM, BBG 50 nM, CNQX 30 µM, APV 100 µM, apyrase 20 U/ml, ARL67156 100 µM, CBX 20 µM, FFA 100 µM, MFQ 1 nM
Experimental: as §1

[4] = tested on: optic nerves; assay: Optic nerve ischaemia (OGD), tissue damage by LDH release; set-up: species or system rats; details: P28 rat optic nerves, 1h OGD + 2h reperfusion; PPADS 1 mM, BBG 50 nM, oATP 1 mM, apyrase 20 U/ml, MFQ 1 µM, CBX 100 µM, FFA 1 mM
Experimental: After 1h OGD at 37°C, the medium was replaced with fresh solution containing glucose and equilibrated with 95% O2, 5% CO2 and the nerves were incubated for another 2h at 37°C to simulate reperfusion.

[5] = target: T2, P2X7 (Homo sapiens, UniProt Q99572); details: cited from earlier work
T2 sequence (Q99572 1-595): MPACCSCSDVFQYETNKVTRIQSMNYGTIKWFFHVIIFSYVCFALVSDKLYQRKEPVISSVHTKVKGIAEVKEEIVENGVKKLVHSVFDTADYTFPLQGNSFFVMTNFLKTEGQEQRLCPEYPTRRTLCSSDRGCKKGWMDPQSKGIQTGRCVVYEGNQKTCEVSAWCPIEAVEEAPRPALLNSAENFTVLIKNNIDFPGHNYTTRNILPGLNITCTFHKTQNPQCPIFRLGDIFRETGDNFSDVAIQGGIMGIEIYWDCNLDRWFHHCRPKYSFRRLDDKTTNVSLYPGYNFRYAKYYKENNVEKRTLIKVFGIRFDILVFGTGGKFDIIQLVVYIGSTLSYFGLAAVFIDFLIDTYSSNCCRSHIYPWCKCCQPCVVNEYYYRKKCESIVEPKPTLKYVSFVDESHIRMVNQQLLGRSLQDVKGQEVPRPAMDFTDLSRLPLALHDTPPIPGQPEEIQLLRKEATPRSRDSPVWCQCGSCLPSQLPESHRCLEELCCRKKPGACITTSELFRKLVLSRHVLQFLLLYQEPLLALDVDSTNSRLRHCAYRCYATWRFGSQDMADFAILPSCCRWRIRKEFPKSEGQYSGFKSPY

[6] = target: T3, P2X3 (Homo sapiens, UniProt P56373); details: read-out: IC50 P2X3; cited from earlier work
T3 sequence (P56373 1-397): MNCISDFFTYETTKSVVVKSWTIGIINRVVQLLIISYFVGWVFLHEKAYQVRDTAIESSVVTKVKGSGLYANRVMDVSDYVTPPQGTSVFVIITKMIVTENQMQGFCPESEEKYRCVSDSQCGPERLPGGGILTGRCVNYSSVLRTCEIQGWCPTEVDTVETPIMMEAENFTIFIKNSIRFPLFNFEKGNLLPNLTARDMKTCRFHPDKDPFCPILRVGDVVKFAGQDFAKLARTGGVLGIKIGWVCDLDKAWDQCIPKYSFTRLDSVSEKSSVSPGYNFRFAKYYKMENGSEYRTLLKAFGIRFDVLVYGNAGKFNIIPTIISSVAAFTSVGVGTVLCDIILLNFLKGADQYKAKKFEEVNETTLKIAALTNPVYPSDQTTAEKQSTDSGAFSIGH

[7] = target: T4, P2X1 (Homo sapiens, UniProt P51575); details: read-out: IC50 P2X1; cited from earlier work
T4 sequence (P51575 1-399): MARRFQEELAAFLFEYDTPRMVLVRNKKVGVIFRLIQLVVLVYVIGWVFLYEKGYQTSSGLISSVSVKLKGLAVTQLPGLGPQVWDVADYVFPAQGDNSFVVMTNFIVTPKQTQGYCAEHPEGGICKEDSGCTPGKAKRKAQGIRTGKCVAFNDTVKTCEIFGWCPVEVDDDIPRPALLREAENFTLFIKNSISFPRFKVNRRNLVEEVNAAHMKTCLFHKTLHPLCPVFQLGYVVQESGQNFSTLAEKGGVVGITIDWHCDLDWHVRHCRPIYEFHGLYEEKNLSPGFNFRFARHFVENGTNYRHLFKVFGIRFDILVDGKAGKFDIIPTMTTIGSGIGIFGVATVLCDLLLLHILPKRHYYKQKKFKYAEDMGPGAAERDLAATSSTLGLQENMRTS

[8] = target: P2X6 (Homo sapiens, UniProt O15547); details: read-out: IC50 P2X6; cited from earlier work
Sequence of P2X6 (O15547 whole entry, species assumed): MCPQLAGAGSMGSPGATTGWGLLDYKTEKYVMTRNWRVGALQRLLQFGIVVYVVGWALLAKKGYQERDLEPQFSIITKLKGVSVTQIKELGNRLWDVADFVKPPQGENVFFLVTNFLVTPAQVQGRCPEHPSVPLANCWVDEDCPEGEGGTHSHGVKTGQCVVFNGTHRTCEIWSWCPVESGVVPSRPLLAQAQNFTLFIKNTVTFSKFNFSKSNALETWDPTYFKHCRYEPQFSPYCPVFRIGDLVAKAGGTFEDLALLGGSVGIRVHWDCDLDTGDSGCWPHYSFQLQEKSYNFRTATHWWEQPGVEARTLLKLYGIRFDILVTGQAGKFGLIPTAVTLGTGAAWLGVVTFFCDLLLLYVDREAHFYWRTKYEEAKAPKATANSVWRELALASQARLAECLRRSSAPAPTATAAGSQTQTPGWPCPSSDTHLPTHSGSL

Molecule	IC50 [1] [µM]	IC50 [5] [µM]	IC50 [6] [µM]	also measured
1-amino-4-[[4-[[4-chloro-6-[[3 (or 4)-sulfophenyl]amino]-1,3,5-triazin-2-yl]amino]-3-sulfophenyl]amino]-9,10-dihydro-9,10-dioxo-2-anthracenesulfonic acid [RB-2]	1			
CCN(CC)c1ncnc2c1ncn2[C@@H]1O[C@H](COP(=O)(O)OP(=O)(O)C(Br)(Br)P(=O)(O)O)[C@@H](O)[C@H]1O [ARL67156]				ATP concentration after OGD ([2]; 1h OGD, ARL67156 100 µM, percentage vs control, OGD alone 181.2 ± 25.3 %): 439.6 ± 71.0%; ATP release after 1h OGD ([2]; ARL67156 100 µM): potentiated; OGD-induced oligodendrocyte cell death [3]: increased; also recorded: potentiated
O=C(O)c1ccccc1Nc1cccc(C(F)(F)F)c1 [FFA, 2-[3-(trifluoromethyl)anilino]benzoic acid]				ischaemia-induced damage to optic nerves (LDH release) [4]: reduced; also recorded: attenuated; ATP levels after OGD ([2]; 1h OGD in the presence of ARL67156, CBX 20 µM, FFA 100 µM, MFQ 1 nM (figure legend)): significantly reduced; OGD-induced oligodendrocyte cell death [3]: inhibited
NC(N)=NC(=O)c1nc(Cl)c(N2CCCCCC2)nc1N [HMA]		4.5		
CN([C@@H](Cc1ccc(OS(=O)(=O)c2cccc3cnccc23)cc1)C(=O)N1CCN(c2ccccc2)CC1)S(=O)(=O)c1cccc2cnccc12 [KN-62, ester of 4-[(2S)-2-[(5-isoquinolinylsulfonyl)methylamino]-3-oxo-3-(4-phenyl-1-piperazinyl)propyl] phenyl isoquinolinesulfonic acid]		0.015		
Cc1nc(N=Nc2cc(S(=O)(=O)O)ccc2S(=O)(=O)O)c2c(c1O)COP(=O)(O)OC2 [MRS2220, cyclic pyridoxine-alpha.4,5-monophosphate-6-azo-phenyl-2',5'disulfonate]			58	IC50 [7]: 10 µM
O=C(Nc1ccc(C(=O)Nc2ccc(C(=O)Nc3ccc(S(=O)(=O)O)c4cc(S(=O)(=O)O)cc(S(=O)(=O)O)c34)cc2)cc1)Nc1ccc(C(=O)Nc2ccc(C(=O)Nc3ccc(S(=O)(=O)O)c4cc(S(=O)(=O)O)cc(S(=O)(=O)O)c34)cc2)cc1 [NF279]	0.77	2.8	1.6	IC50 [7]: 2 µM
O=C(Nc1cc(C(=O)Nc2ccc(S(=O)(=O)O)cc2S(=O)(=O)O)cc(C(=O)Nc2ccc(S(=O)(=O)O)cc2S(=O)(=O)O)c1)Nc1cc(C(=O)Nc2ccc(S(=O)(=O)O)cc2S(=O)(=O)O)cc(C(=O)Nc2ccc(S(=O)(=O)O)cc2S(=O)(=O)O)c1 [NF449, octasodium salt of 4,4',4",4"'-(carbonylbis(imino-5,1,3-benzenetriylbis(carbonylimino)))tetrakis-benzene-1,3-disulfonic acid]			< 0.006	
Cc1nc(N=Nc2cc(S(=O)(=O)O)c3cc([N+](=O)[O-])cc(S(=O)(=O)O)c3c2)c(CO[P+]([O-])(O)O)c(C=O)c1O [PPNDS]	0.015			
Cc1ccc(C(=O)Nc2ccc(S(=O)(=O)O)c3cc(S(=O)(=O)O)cc(S(=O)(=O)O)c23)cc1NC(=O)c1cccc(NC(=O)Nc2cccc(C(=O)Nc3cc(C(=O)Nc4ccc(S(=O)(=O)O)c5cc(S(=O)(=O)O)cc(S(=O)(=O)O)c45)ccc3C)c2)c1 [Suramin, hexasodium salt of 8,8'-[carbonylbis[imino-3,1-phenylenecarbonylimino(4-methyl-3,1-phenylene)carbonylimino]] bisnaphthalene-1,3,5-trisulphonic acid]	1 to 5			IC50 [8]: > 100 µM
Nc1ncnc2c1ncn2[C@@H]1O[C@H](COP(=O)(O)OP(=O)(O)OP(=O)(O)O)[C@H]2OC3(O[C@H]21)C([N+](=O)[O-])=CC(=[N+]([O-])[O-])C=C3[N+](=O)[O-] (stereo partly shown) [TNP-ATP, monolithium salt of 2',3'-O-2,4,6-trinitrophenyl-adenosine 5'-triphosphate]		> 30		
Cc1nc(/N=N/c2cc(S(=O)(=O)O)ccc2S(=O)(=O)O)c(COP(=O)(O)O)c(C=O)c1O [isoPPADS, tetrasodium salt of pyridoxalphosphate-6-azophenyl-1',4'-disulfonic acid]			1	IC50 [7]: 1 to 5 µM
